Test results as given in PMC9032718, “Eltrombopag as an Allosteric Inhibitor of the METTL3-14 Complex Affecting the m^6A Methylation of RNA in Acute Myeloid Leukemia Cells” (Pharmaceuticals, 2022).

Columns and labels:
DOT1L = biological target: T1, DOT1L (Homo sapiens, UniProt Q8TEK3); test: Methyltransferase selectivity panel (MT HotSpot radioisotope assay), DOT1L; type: biochemical; conditions: 10 μM eltrombopag, DOT1L
T1 construct: purchased Reaction Biology (Malvern, PA, USA), contract assay
T1 sequence (Q8TEK3 whole entry): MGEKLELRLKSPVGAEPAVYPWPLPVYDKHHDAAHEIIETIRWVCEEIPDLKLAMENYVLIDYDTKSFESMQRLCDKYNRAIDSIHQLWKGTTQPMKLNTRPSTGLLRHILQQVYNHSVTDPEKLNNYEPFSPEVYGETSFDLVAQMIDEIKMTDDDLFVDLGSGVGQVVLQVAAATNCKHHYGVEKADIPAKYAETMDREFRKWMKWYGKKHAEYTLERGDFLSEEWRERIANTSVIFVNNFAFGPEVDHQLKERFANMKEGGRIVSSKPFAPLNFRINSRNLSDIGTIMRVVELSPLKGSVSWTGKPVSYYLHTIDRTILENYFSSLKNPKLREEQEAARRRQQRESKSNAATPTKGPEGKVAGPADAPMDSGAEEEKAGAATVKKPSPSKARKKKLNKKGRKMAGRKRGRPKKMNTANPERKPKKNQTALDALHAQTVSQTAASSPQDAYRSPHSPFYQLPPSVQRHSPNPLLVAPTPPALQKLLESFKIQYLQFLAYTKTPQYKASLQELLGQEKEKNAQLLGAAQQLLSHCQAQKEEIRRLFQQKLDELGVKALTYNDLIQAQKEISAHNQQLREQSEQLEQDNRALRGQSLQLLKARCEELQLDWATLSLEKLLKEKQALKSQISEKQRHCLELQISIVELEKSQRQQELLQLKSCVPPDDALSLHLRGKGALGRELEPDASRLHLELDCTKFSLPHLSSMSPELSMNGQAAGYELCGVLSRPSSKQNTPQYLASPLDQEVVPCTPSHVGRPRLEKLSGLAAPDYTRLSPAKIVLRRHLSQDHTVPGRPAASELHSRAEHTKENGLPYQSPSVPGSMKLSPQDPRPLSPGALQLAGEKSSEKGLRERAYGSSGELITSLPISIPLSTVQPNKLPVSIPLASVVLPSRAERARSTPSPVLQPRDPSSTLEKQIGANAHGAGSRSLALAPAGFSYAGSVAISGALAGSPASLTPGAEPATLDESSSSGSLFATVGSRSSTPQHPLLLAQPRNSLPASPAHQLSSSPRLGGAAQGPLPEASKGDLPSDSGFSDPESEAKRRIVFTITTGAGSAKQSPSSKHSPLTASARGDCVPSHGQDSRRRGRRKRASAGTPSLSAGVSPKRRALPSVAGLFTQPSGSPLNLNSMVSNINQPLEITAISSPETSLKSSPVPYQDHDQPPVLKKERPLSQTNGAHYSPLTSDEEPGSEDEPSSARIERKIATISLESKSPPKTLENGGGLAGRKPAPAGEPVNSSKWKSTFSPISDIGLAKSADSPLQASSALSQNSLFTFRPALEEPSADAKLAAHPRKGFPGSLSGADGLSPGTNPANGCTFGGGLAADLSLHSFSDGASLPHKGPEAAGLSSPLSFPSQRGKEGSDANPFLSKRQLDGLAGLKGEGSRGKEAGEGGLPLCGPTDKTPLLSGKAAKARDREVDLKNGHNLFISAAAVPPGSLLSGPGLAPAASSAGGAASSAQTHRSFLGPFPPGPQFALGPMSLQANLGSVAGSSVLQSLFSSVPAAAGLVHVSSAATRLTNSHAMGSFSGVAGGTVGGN
Experimental: (§1) The selectivity profile of eltrombopag was investigated by testing the level of inhibition in a methyltransferase panel. The inhibition of 7 […] methyltransferase was tested at Reaction Biology (Malvern, PA, USA) using a gold standard radioisotope-based MT assay (MT HotSpot^TM) with 10 μM of eltrombopag in duplicate.

MLL4 complex = biological target: T2, MLL4 complex (Homo sapiens, UniProt Q9UMN6); test: Methyltransferase selectivity panel (MT HotSpot radioisotope assay), MLL4 complex; type: biochemical; conditions: 10 μM eltrombopag
T2 construct: purchased Reaction Biology (Malvern, PA, USA), contract assay
Experimental: as §1

PRDM9 = biological target: T3, PRDM9 (Homo sapiens, UniProt Q9NQV7); test: Methyltransferase selectivity panel (MT HotSpot radioisotope assay), PRDM9; type: biochemical; conditions: 10 μM eltrombopag
T3 construct: purchased Reaction Biology (Malvern, PA, USA), contract assay
T3 sequence (Q9NQV7 whole entry): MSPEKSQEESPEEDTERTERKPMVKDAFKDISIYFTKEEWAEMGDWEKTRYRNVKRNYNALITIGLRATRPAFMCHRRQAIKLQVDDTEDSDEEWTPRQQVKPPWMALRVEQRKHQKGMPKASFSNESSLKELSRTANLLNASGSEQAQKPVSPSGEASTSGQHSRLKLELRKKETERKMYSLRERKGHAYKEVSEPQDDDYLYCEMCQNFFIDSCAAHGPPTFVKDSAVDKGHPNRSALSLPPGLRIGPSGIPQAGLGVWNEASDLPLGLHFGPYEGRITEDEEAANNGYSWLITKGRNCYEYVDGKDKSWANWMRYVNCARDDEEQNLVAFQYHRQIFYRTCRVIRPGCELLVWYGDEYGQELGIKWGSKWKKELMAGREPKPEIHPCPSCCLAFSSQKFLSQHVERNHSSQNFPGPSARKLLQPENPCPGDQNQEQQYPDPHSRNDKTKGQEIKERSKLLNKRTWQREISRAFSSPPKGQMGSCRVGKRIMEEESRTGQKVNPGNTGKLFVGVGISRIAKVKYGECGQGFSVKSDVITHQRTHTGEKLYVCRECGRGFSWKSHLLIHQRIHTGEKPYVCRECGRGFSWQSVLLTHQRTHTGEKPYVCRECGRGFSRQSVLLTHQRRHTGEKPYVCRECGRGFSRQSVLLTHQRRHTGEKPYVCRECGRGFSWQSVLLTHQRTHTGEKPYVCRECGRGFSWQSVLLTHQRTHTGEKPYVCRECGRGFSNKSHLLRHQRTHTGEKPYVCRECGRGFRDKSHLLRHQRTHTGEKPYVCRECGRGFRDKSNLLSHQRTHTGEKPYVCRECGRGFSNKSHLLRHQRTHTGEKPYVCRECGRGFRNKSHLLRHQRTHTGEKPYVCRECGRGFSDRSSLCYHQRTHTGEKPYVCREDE
Experimental: as §1

PRMT1 = biological target: T4, PRMT1 (Homo sapiens, UniProt Q99873); test: Methyltransferase selectivity panel (MT HotSpot radioisotope assay), PRMT1; type: biochemical; conditions: 10 μM eltrombopag
T4 construct: purchased Reaction Biology (Malvern, PA, USA), contract assay
T4 sequence (Q99873 whole entry): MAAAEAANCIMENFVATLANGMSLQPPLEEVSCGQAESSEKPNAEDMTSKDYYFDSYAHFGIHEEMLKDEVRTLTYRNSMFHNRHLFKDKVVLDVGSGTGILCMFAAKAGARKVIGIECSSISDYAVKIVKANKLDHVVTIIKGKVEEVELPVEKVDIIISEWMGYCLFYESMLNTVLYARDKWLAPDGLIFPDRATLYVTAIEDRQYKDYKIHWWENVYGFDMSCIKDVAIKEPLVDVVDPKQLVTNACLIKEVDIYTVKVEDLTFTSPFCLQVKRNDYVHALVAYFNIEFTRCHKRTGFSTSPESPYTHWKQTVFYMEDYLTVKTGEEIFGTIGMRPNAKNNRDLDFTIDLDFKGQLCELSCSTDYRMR
Excerpt: The selectivity profile of eltrombopag was investigated by testing the level of inhibition in a methyltransferase panel.

SETD2 = biological target: T5, SETD2 (Homo sapiens, UniProt Q9BYW2); test: Methyltransferase selectivity panel (MT HotSpot radioisotope assay), SETD2; type: biochemical; conditions: 10 μM eltrombopag
T5 construct: purchased Reaction Biology (Malvern, PA, USA), contract assay
Experimental: as §1

METTL14 = biological target: T6, METTL14 (Homo sapiens, UniProt Q9HCE5); test: Bioluminescence enzyme assay, single form of METTL14; type: biochemical; conditions: 36 μM eltrombopag; 300 nM METTL14, 5 h; read-out: % inhibition, single subunit enzyme form of METTL14
T6 construct: 10x His (thrombin-cleavable); made in house; host or cells: insect cells, baculovirus (pVL1393)
T6 sequence (Q9HCE5 1-456): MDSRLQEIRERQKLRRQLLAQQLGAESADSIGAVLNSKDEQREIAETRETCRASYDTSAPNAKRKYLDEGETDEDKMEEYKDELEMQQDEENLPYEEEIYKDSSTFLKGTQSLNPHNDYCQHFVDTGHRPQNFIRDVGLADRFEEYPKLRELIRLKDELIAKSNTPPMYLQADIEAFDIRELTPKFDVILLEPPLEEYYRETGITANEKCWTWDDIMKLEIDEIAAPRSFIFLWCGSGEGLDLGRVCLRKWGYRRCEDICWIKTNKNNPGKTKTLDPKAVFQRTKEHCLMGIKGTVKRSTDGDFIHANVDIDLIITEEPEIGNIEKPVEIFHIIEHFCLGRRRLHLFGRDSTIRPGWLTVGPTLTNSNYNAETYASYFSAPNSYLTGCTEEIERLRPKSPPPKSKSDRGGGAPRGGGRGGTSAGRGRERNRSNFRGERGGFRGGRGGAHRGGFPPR
Experimental: (§2) An enzymatic bioluminescence assay was established to identify the METTL3-14 inhibitor through screening. […] METTL3-14 activity was assessed by measuring the luminescence using a Victor multilabel reader (PerkinElmer, Waltham, MA, USA). The IC50 values were calculated by a nonlinear regression analysis using OriginPro 9.1 software (OriginLab).
(§3) To confirm the mechanism of action of eltrombopag in the METTL3-14 complex, 30 nM METTL3-14 and serially diluted eltrombopag were reacted with various concentrations of SAM or RNA substrate and saturating concentrations of the other substrate (3 μM SAM or 2 μM RNA substrate) for 20 min. To evaluate the inhibitory activity in a single form of METTL3 and METTL14, 1 μM of METTL3 and 300 nM of METTL14 were incubated with 1 μM of SAM, 500 nM of RNA substrates, and serially diluted eltrombopag for 5 h. To measure the inhibitory activity in the truncated form of the METTL3-14 complex, 1 μM of the truncated METTL3-14 complex was reacted with 1 μM of SAM, 500 nM of RNA substrates, and serially diluted eltrombopag for 5 h.

[1] = biological target: T7, truncated METTL3-14 complex (Homo sapiens, UniProt Q86U44); test: Bioluminescence enzyme assay, truncated form of METTL3-14 (methyltransferase domain); type: biochemical
T7 construct: MTase domain of human METTL3 (residues 369 to 580); METTL14 (residues 106 to 396); 10x His (thrombin-cleavable) (cleaved yes); made in house; host or cells: Trichoplusia ni (Hi5) cells co-infected with two baculoviruses
T7 sequence (Q86U44 369-580, one chain of several): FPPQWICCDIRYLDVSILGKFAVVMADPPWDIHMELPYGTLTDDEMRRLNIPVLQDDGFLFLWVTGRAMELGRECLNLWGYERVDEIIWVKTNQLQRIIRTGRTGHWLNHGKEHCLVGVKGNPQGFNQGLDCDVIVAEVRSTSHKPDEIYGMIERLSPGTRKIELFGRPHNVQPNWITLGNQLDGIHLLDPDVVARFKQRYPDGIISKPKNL
Experimental: as §2, §3

MOLM-14 cells = test: Anti-proliferative assay (EZ-cytox), MOLM-14; type: cell-based; conditions: Homo sapiens, MOLM-14, 72 h
Experimental: (§4) The MOLM-13, MOLM-14, HL60, MV4-11, and THP-1 cells were seeded in white 96-well clear bottomed plates with 100 μL of medium (5000 cells/well). The plated cells were treated with serially diluted compounds and incubated for 72 h at 37 °C. After incubation, 10 μL of EZ-cytox kit reagent from the EZ-cytox cell viability assay kit (DaeiLab, Seoul, Korea) was added to each well and then incubated for 3 h at 37 °C. The absorbance of metabolically active cells was measured at a wavelength of 450 nm using a Victor multilabel reader (PerkinElmer). The GI50 values were calculated by nonlinear regression analysis using OriginPro 9.1 software (OriginLab).

HL60 cells = test: Anti-proliferative assay (EZ-cytox), HL60; type: cell-based; conditions: Homo sapiens, HL-60, 72 h
Experimental: as §4

MV4-11 cells = test: Anti-proliferative assay (EZ-cytox), MV4-11; type: cell-based; conditions: Homo sapiens, MV4-11, 72 h
Experimental: as §4

THP-1 cells = test: Anti-proliferative assay (EZ-cytox), THP-1; type: cell-based; conditions: Homo sapiens, THP-1, 72 h
Experimental: as §4

[2] = set-up: method as in PMID 34225039; conditions: cited from earlier work

## CC1=NN(c2ccc(C)c(C)c2)C(=O)/C1=N\Nc1cccc(-c2cccc(C(=O)O)c2)c1O [Eltrombopag]
DOT1L
  remaining activity at 10 µM: 90 ± 2.8%
MLL4 complex
  remaining activity at 10 µM: 70.9 ± 2.4%
PRDM9
  remaining activity at 10 µM: 130 ± 4%
PRMT1
  remaining activity at 10 µM: 96.1 ± 3.9%
SETD2
  remaining activity at 10 µM: 97.3 ± 4.1%
METTL14
  inhibition at 36 µM: 59.3%
[1]
  fold change of IC50, truncated versus full length METTL3-14: 3.5 fold
[1]; 1 μM truncated complex, 1 μM SAM, 500 nM RNA, 5 h
  IC50: 12 µM
MOLM-14 cells
  GI50: 10.4 ± 0.7 µM
HL60 cells
  GI50: 12.9 ± 0.9 µM
MV4-11 cells
  GI50: 14.3 ± 0.1 µM
THP-1 cells
  GI50: 22.3 ± 0.4 µM
[2]
  water solubility: low
